According to US9546354B2, “Z cells activated by zinc finger-like protein and uses thereof in cancer treatment” (National Cheng Kung University, priority 2014, dated 2017):
Entries after “also recorded” stand apart in the source; their conditions may differ. No end group written: not given here. TMR = tetramethylrhodamine label

Tests used:
[1] = tested on: Z cell function; experiment: screen of more than 300 compounds for boosting Z cell function; conditions: alone or in combination with a Zfra peptide
Description: In this example, more than 300 hundred compounds were screened for their activities in boosting Z cell function either alone or in combination with a Zfra peptide. From this collection of compounds, CI-4AS-1 (androgen receptor agonist) and (±)-Blebbistatin (inhibitor for non-muscle myosin II ATPase) were identified.

[2] = tested on: spleen Z cells; experiment: level of TMR-Zfra-positive spleen Z cells by cell sorting; assay type: in vivo; conditions: Zfra-treated BALB/c mice inoculated with B16F10 melanoma
Method: (§1) FIG. 3 is a diagram showing identification of Z spleen cells. (A) Nude mice were pre-injected with sterile MilliQ water or a mixture of Zfra1-31 (2 mM in 100 μl sterile water) in 4 consecutive weeks, followed by inoculating malignant breast MDA-MB-231 cells on both flanks 7 and 50 days later. Tumor sizes on both flanks (blue and red) were measured daily. […] These mice were sacrificed, and TMR-Zfra-positive spleen cells were isolated by cell sorting. TMR-Zfra-positive Z spleen cells were around 25% in Zfra-treated mice. […] In B16F10 melanoma-growing BALB/c mice, spleen Z cells dropped down to 3.3% or even lower. In untreated control mice, Z cells are around 25-29%.
Next, the levels of spleen Z cells in mice pre-treated with full-length Zfra1-31 or control and inoculated with B16F10 melanoma cells were examined. B16F10-growing BALB/c mice had low levels of Z cells, which were 3.3% or lower (FIG. 3C). In contrast, Zfra-treated mice had 26.1% Z cells (FIG. 3C). […] These cells are Hyal-2 positive. The observations indicate that Z cells (e.g., Hyal-2 positive spleen cells) are depleted in mice having cancer growths, and that treatment with Zfra increases the number of Z cells in mice having cancer growths.
Spleen cells from the mice were isolated and stained with synthesized peptide TMR-Zfra1-31 (Tetramethylrhodamine-Zfra, excitation 550 nm, emission 573 nm) for 30 minutes on ice.

[3] = tested on: melanoma B16F10 cells; experiment: melanoma B16F10 growth in pre-injected BALB/c mice; assay type: in vivo; conditions: pre-injection before inoculation, immune competent BALB/c mice
Method: as §1
FIG. 4A is a diagram showing in vivo animal models design to test the anticancer efficacy of chemical drugs and “Z cells” activation. Immune competent BALB/c mice or immune deficient NOD-SCID mice were pre-injected with CI-4AS-1 or (±)-Blebbistatin with or without zinc finger-like Zfra4-10 peptide once per week for 3 consecutive weeks, and then inoculated with 2.5×10^6 or 1.5×10^6 malignant melanoma B16F10 cells at both right and left flanks. After 60 days, spleen cells transferred were performed from BALB/c to NOD-SCID mice via tail veins injection. Thirty days later, the recipient mice were inoculated with 1.5×10^6 malignant melanoma B16F10 cells at both right and left flanks. […]

[4] = tested on: DsRed-Hyal-2; experiment: Förster resonance energy transfer (FRET) analysis; assay type: binding; conditions: versus EGFP and DsRed controls, n=10, p<0.005
[5] = biological target: T1, membrane hyaluronidase Hyal-2 (Mus musculus, UniProt O35632); experiment: staining of spleen cells with TMR-Zfra and Hyal-2 antibody, epifluorescence and confocal microscopy; assay type: binding, NOD-SCID mice; conditions: 30 minutes on ice
T1 construct: spleen cells were isolated from immune deficient NOD-SCID mice; from tissue; host or cells: spleen cells of NOD-SCID mice
T1 sequence (O35632 21-448): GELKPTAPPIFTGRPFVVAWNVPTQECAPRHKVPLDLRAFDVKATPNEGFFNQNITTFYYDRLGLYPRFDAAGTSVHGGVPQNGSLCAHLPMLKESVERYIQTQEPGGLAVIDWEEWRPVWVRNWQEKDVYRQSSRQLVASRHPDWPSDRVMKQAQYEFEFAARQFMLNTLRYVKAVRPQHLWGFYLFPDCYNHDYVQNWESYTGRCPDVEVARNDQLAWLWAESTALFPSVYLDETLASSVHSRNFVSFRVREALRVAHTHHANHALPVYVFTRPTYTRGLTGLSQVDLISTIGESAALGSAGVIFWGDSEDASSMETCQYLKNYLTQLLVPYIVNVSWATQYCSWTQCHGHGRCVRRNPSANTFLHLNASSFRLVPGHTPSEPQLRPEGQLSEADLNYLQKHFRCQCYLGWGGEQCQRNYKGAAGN
Method: FIG. 2 includes photos showing the identification of Zfra^+ Hyal-2^+ spleen cells. A and B: Spleen cells of NOD-SCID mice were isolated and stained with synthesized peptide TMR-Zfra1-31 and Hyal-2 (green fluorescence) antibody for 30 minutes on ice, and then fixed with 4% formaldehyde.
In this example, spleen cells were isolated from immune deficient NOD-SCID mice, which are deficient in T and B lymphocytes and NK cells. The isolated spleen cells were stained with antibody against Hyal-2 (green) and TMR-Zfra (Zfra1-31 labeled with red fluorescent tetramethylrodamine) for 30 minutes on ice, and then fixed with 4% formaldehyde (FIG. 2). […] These Hyal-2^+ Zfra^+ positive cells are interchangeably referred to as “Z cells,” for cells interacting with Zfra.

[6] = tested on: Z cells; experiment: Z cell activation by Zfra peptide; assay type: cell-based, BALB/c mice; conditions: in vivo and in vitro
Method: Briefly, spleen cells were isolated from BALB/c mice and then cultured overnight. These cells were stimulated with Zfra4-10 peptide (10 μM) for 16-24 hr, and then stained with TMR-Zfra, followed by isolating the cells using a cell sorter. Z+ and Z− cell populations were counted and injected via tail veins of BALB/c. […] FIG. 5.

[7] = tested on: WWOX; experiment: Ser14 phosphorylation of WWOX and Wwox protein level in the lung of treated mice; assay type: in vivo, BALB/c mice
Method: (§2) FIG. 1 includes photos showing that Zfra suppresses melanoma B16F10 metastasis to the lung and cancer stemness. BALB/c mice were pre-injected with sterile MilliQ water or Zfra4-10 (1 mM in 100 μl sterile water) in 3 consecutive weeks. Post-treatment for a week, these mice were inoculated with melanoma B16F10 cells via tail veins (2×10^5 cells in 100 μl PBS). Control mice died 50 days later, and Zfra-treated mice were alive and sacrificed for examination. A: Shown on the lung surface are the metastatic tumor foci as dark areas in control mice. […] No metastases were found in other organs in both mice. C: Zfra suppressed Ser14 phosphorylation of […] (or Wwox) in the lung of Zfra treated mice (˜65% suppression).
(§3) Importantly, cancer cell stemness, as determined by the expression of pluripotent stem cell markers Oct-4 and SSEA-4, was blocked in the lungs of Zfra4-10 treated mice (FIG. 1D). Thus, when WWOX phosphorylation at Ser14 is blocked by Zfra, cancer cell metastasis and stemness is prevented.

[8] = tested on: melanoma B16F10 cells; experiment: melanoma B16F10 lung metastasis after tail-vein inoculation in pre-injected BALB/c mice; assay type: in vivo
Method: as §2
BALB/c mice were pre-injected with sterile MilliQ water or Zfra4-10 (1 mM in 100 μl sterile water) once per week in three consecutive weeks. Following one week post-treatment, the mice were inoculated with melanoma B16F10 cells via tail veins (2×10^5 cells in 100 μl PBS).
as §3

[9] = tested on: breast MDA-MB-231 cells; experiment: breast MDA-MB-231 xenograft growth in pre-injected nude mice; assay type: in vivo; conditions: pre-injected once per week for 4 weeks
Method: as §1

In the case of CI-4AS-1, the “outcome of screen for boosting Z cell function” value [1] is reported as “identified”.

In the case of “Zfra: Zfra peptide, form not stated at the place (Zfra1-31 or Zfra4-10) (MSSRRSSSCKYCEQDFRAHTQKNAATPFLAN)”, the “TMR-Zfra-positive Z spleen cells” value [2] is reported as “around 25%”, the “growth of melanoma B16F10 in BALB/c mice” value [3] is reported as “completely blocked” and the “binding to Hyal-2 by FRET” value [4] is reported as “binding of Zfra to membrane Hyal-2”.

For “TMR-Zfra1-31: Zfra1-31 labeled with red fluorescent tetramethylrodamine ({TMR}-MSSRRSSSCKYCEQDFRAHTQKNAATPFLAN; cysteine pairing not given here)”, the “binding to or colocalization with membrane Hyal-2 on spleen cells” value [5] was “bound to membrane hyaluronidase Hyal-2” and the “binding to or colocalization with membrane Hyal-2 on spleen cells” value ([5]; listed as TMR-Zfra) was “colocalization of both proteins on the cell surface”.

In the case of `Cc1ccc2c(c1)C(=O)C1(O)CCN(c3ccccc3)C1=N2` (racemic) [(±)-Blebbistatin], the “outcome of screen for boosting Z cell function” value [1] is reported as “identified”.

In the case of RRSSSCK [Zfra4-10], the Z cell activation [6] is reported as “sufficient to induce Z cell activation both in vivo and in vitro”, the Wwox protein levels ([7]; lung of Zfra treated mice) is reported as “not suppressed” and the “suppression of Ser14 phosphorylation of WWgre (or Wwox) in the lung” value ([7]; lung of Zfra treated mice, FIG. 1C) is reported as about 65%. The “Ser14 phosphorylation of WWOX (in words)” value ([7]; lung of treated mice, FIG. 1C) was “inhibition of Ser14 phosphorylation of WWOX”, the “growth of melanoma B16F10 in BALB/c mice” value [3] was “prevented melanoma B16F10 growth” and the “cancer cell stemness (pluripotent markers Oct-4 and SSEA-4) in the lung” value ([8]; B16F10 cells in the lung, FIG. 1D) was “suppressed the stemness; also recorded: blocked”. For the same compound, the “melanoma B16F10 metastasis to the lung” value ([8]; Zfra4-10 1 mM in 100 μl once per week for 3 weeks before 2×10^5 B16F10 cells via tail veins) was “Metastasis was not found; also recorded: suppressed melanoma B16F10 metastasis to the lung” and the survival of mice ([8]; when control mice died 50 days after inoculation of B16F10 cells) was “remained alive”.

With “EGFP-Zfra: EGFP-tagged Zfra used in FRET analysis with DsRed-Hyal-2 (MSSRRSSSCKYCEQDFRAHTQKNAATPFLAN; cysteine pairing not given here; also: EGFP tag fused, end not given here) [reference compound]” the “binding to Hyal-2 by FRET” value [4] was “significant binding”.

In the case of “NH-MSSRRSSSCKYCEQDFRAHTQKNAATPFLAN-COOH (H-MSSRRSSSCKYCEQDFRAHTQKNAATPFLAN-OH; cysteine pairing not given here) [Zfra1-31]”, the “growth of breast MDA-MB-231 xenografts” value [9] is reported as “resisted the growth” and the “TMR-Zfra-positive Z spleen cells” value [2] is reported as 26.1%.
